# Measurements: US10597388B2, “Pyridazinone herbicides” (FMC CORPORATION, priority 2014, dated 2020)
# Legend:
# Format in all cases: in vivo
# [1] = system: ragweed (common ragweed, Ambrosia elatior); assay: Test C greenhouse herbicide test, pre- and postemergence
# Summary of the method: (§1)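 Pre- and postemergence greenhouse screen; values are visual control ratings, 0 meaning no effect and 100 complete kill, assigned relative to untreated plants after 13 to 15 d.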
# [2] = system: blackgrass (Alopecurus myosuroides); assay: as above
# Summary of the method: as §1
# [3] = system: barnyardgrass (Echinochloa crus-galli); assay: as above
# Summary of the method: as §1
# [4] = system: lambsquarters (Chenopodium album); assay: as above
# Summary of the method: as §1
# [5] = system: foxtail, giant (giant foxtail, Setaria faberii); assay: as above
# Summary of the method: as §1
# soybean (Glycine max) = assay: as above
# Summary of the method: as §1
# [6] = system: crabgrass, large (large crabgrass, Digitaria sanguinalis); assay: as above
# Summary of the method: as §1
# corn (Zea mays) = assay: as above
# Summary of the method: as §1
# [7] = system: ryegrass, Italian (Italian ryegrass, Lolium multiflorum); assay: as above
# Summary of the method: as §1
# [8] = system: morningglory (Ipomoea coccinea); assay: as above
# Summary of the method: as §1
# [9] = system: wheat (winter wheat, Triticum aestivum); assay: as above
# Summary of the method: as §1
# [10] = system: waterhemp (common waterhemp, Amaranthus rudis); assay: as above
# Summary of the method: as §1
# [11] = system: johnsongrass (Sorghum halepense); assay: as above
# Summary of the method: as §1
# [12] = system: pigweed (Amaranthus retroflexus); assay: as above
# Summary of the method: as §1
# kochia (Kochia scoparia) = assay: Test C greenhouse herbicide test, postemergence; details: Postemergence
# Summary of the method: (§2)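 Postemergence foliar treatment, 1- to 4-leaf stage (2–18 cm), peat/vermiculite medium; greenhouse 13–15 d; visual rating vs controls, 0 = no effect, 100 = complete control; dash = no result.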
# [13] = system: oat, wild (wild oat, Avena fatua); assay: Test C greenhouse herbicide test, postemergence; details: Postemergence
# Summary of the method: as §2
# [14] = Postemergence, 31 g ai/ha, scale 0 to 100 (0 no effect, 100 complete control)
# [15] = Postemergence, 125 g ai/ha, scale 0 to 100, 0 is no effect, 100 is complete control
# [16] = Postemergence, 250 g ai/ha, scale 0 to 100, 0 no effect, 100 complete control, 13 to 15 d
# [17] = Preemergence, 31 g ai/ha, scale 0 to 100, 0 is no effect, 100 is complete control
# [18] = Preemergence, 62 g ai/ha, scale 0 to 100, 0 is no effect, 100 is complete control
# [19] = Preemergence, 125 g ai/ha, scale 0 to 100, 0 is no effect, 100 is complete control
# [20] = Preemergence, 250 g ai/ha, scale 0 to 100 (0 no effect, 100 complete control)
# [21] = postemergence, 62 g ai/ha, scale 0 to 100, 0 no effect, 100 complete control
# [22] = 31 g ai/ha, scale 0 to 100 (0 no effect, 100 complete control)
# [23] = 125 g ai/ha, scale 0 to 100, 0 is no effect, 100 is complete control
# [24] = 250 g ai/ha, scale 0 to 100, 0 no effect, 100 complete control, 13 to 15 d
smiles,measurement,setting,value
CCCC(=O)Oc1c(C)nn(C)c(=O)c1-c1c(C)sc2c(C)cc(C)cc12 [Compound 106],"Plant response rating, Ragweed",[1]; [14],80
same,"Plant response rating, Ragweed",[1]; [15],75
same,"Plant response rating, Ragweed",[1]; [16],98
same,"Plant response rating, Ragweed",[1]; [17],85
same,"Plant response rating, Ragweed",[1]; [18],90
same,"Plant response rating, Ragweed",[1]; [19],95
same,Ragweed plant response rating,[1]; [20],95
same,"Plant response rating, Blackgrass",[2]; [14],45
same,"Plant response rating, Blackgrass",[2]; [15],60
same,"Plant response rating, Blackgrass",[2]; [16],75
same,"Plant response rating, Blackgrass",[2]; [17],10
same,"Plant response rating, Blackgrass",[2]; [18],50
same,"Plant response rating, Blackgrass",[2]; [19],90
same,Blackgrass plant response rating,[2]; [20],85
same,Blackgrass plant response rating,[2]; [21],50
same,"Plant response rating, Barnyardgrass",[3]; [14],15
same,"Plant response rating, Barnyardgrass",[3]; [15],20
same,"Plant response rating, Barnyardgrass",[3]; [16],40
same,"Plant response rating, Barnyardgrass",[3]; [17],25
same,"Plant response rating, Barnyardgrass",[3]; [18],45
same,"Plant response rating, Barnyardgrass",[3]; [19],85
same,Barnyardgrass plant response rating,[3]; [20],95
same,Barnyardgrass plant response rating,[3]; [21],15
same,"Plant response rating, Lambsquarters",[4]; [14],85
same,"Plant response rating, Lambsquarters",[4]; [15],95
same,"Plant response rating, Lambsquarters",[4]; [16],98
same,"Plant response rating, Lambsquarters",[4]; [17],90
same,"Plant response rating, Lambsquarters",[4]; [18],90
same,"Plant response rating, Lambsquarters",[4]; [19],100
same,Lambsquarters plant response rating,[4]; [20],100
same,"Plant response rating, Foxtail, Giant",[5]; [14],70
same,"Plant response rating, Foxtail, Giant",[5]; [15],90
same,"Plant response rating, Foxtail, Giant",[5]; [16],95
same,"Plant response rating, Foxtail, Giant",[5]; [17],85
same,"Plant response rating, Foxtail, Giant",[5]; [18],95
same,"Plant response rating, Foxtail, Giant",[5]; [19],100
same,"Foxtail, Giant plant response rating",[5]; [20],100
same,"Plant response rating, Soybean",soybean (Glycine max); [14],0
same,"Plant response rating, Soybean",soybean (Glycine max); [15],0
same,"Plant response rating, Soybean",soybean (Glycine max); [16],10
same,"Plant response rating, Soybean",soybean (Glycine max); [17],0
same,"Plant response rating, Soybean",soybean (Glycine max); [18],0
same,"Plant response rating, Soybean",soybean (Glycine max); [19],0
same,Soybean plant response rating,soybean (Glycine max); [20],0
same,"Plant response rating, Crabgrass, Large",[6]; [14],25
same,"Plant response rating, Crabgrass, Large",[6]; [15],30
same,"Plant response rating, Crabgrass, Large",[6]; [16],30
same,"Plant response rating, Crabgrass, Large",[6]; [17],70
same,"Plant response rating, Crabgrass, Large",[6]; [18],70
same,"Plant response rating, Crabgrass, Large",[6]; [19],75
same,"Crabgrass, Large plant response rating",[6]; [20],80
same,"Crabgrass, Large plant response rating",[6]; [21],40
same,"Plant response rating, Corn",corn (Zea mays); [14],0
same,"Plant response rating, Corn",corn (Zea mays); [15],10
same,"Plant response rating, Corn",corn (Zea mays); [16],10
same,"Plant response rating, Corn",corn (Zea mays); [17],0
same,"Plant response rating, Corn",corn (Zea mays); [18],0
same,"Plant response rating, Corn",corn (Zea mays); [19],10
same,Corn plant response rating,corn (Zea mays); [20],20
same,Corn plant response rating,corn (Zea mays); [21],10
same,"Plant response rating, Ryegrass, Italian",[7]; [14],85
same,"Plant response rating, Ryegrass, Italian",[7]; [15],90
same,"Plant response rating, Ryegrass, Italian",[7]; [16],35
same,"Plant response rating, Ryegrass, Italian",[7]; [17],50
same,"Plant response rating, Ryegrass, Italian",[7]; [18],70
same,"Plant response rating, Ryegrass, Italian",[7]; [19],85
same,"Ryegrass, Italian plant response rating",[7]; [20],90
same,"Plant response rating, Morningglory",[8]; [14],100
same,"Plant response rating, Morningglory",[8]; [15],100
same,"Plant response rating, Morningglory",[8]; [16],98
same,"Plant response rating, Morningglory",[8]; [17],85
same,"Plant response rating, Morningglory",[8]; [18],90
same,"Plant response rating, Morningglory",[8]; [19],98
same,Morningglory plant response rating,[8]; [20],98
same,"Plant response rating, Wheat",[9]; [14],0
same,"Plant response rating, Wheat",[9]; [15],0
same,"Plant response rating, Wheat",[9]; [16],5
same,"Plant response rating, Wheat",[9]; [17],15
same,"Plant response rating, Wheat",[9]; [18],0
same,"Plant response rating, Wheat",[9]; [19],0
same,Wheat plant response rating,[9]; [20],0
same,"Plant response rating, Waterhemp",[10]; [14],65
same,"Plant response rating, Waterhemp",[10]; [15],75
same,"Plant response rating, Waterhemp",[10]; [16],80
same,"Plant response rating, Waterhemp",[10]; [17],70
same,"Plant response rating, Waterhemp",[10]; [18],75
same,"Plant response rating, Waterhemp",[10]; [19],80
same,Waterhemp plant response rating,[10]; [20],90
same,"Plant response rating, Johnsongrass",[11]; [14],5
same,"Plant response rating, Johnsongrass",[11]; [15],10
same,"Plant response rating, Johnsongrass",[11]; [16],10
same,"Plant response rating, Johnsongrass",[11]; [17],5
same,"Plant response rating, Johnsongrass",[11]; [18],5
same,"Plant response rating, Johnsongrass",[11]; [19],5
same,Johnsongrass plant response rating,[11]; [20],15
same,"Plant response rating, Pigweed",[12]; [14],70
same,"Plant response rating, Pigweed",[12]; [15],90
same,"Plant response rating, Pigweed",[12]; [16],90
same,"Plant response rating, Pigweed",[12]; [17],98
same,"Plant response rating, Pigweed",[12]; [18],98
same,"Plant response rating, Pigweed",[12]; [19],100
same,Pigweed plant response rating,[12]; [20],100
same,"Plant response rating, Kochia",kochia (Kochia scoparia); [22],70
same,"Plant response rating, Kochia",kochia (Kochia scoparia); [23],80
same,"Plant response rating, Kochia",kochia (Kochia scoparia); [24],80
same,"Plant response rating, Oat, Wild",[13]; [22],50
same,"Plant response rating, Oat, Wild",[13]; [23],90
same,"Plant response rating, Oat, Wild",[13]; [24],90
